# Where a name gives a salt, the structure may show the parent alone.
# Assays:
# [1] = tested on: phosphorylation of the IRF-3 protein in MDA-MB-468 cells; experiment: pIRF3 immunocytochemistry cell based assay; conditions: Homo sapiens; MDA-MB-468 cells, Poly(I:C) stimulation; read-out: pIRF3 IC50
# In short: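 MDA-MB-468 cells got compounds (10-point, 3-fold from 10 uM) for 1 h at 37 °C, then 10 ug/ml Poly(I:C) for 2 h. Fixed, permeabilized cells were immunostained for pIRF3 with AlexaFluor488 and counterstained with PI. % phosphorylation was read by laser scanning cytometry, and IC50 curves were fitted.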
# TBK1 = molecular target: T1, TBK1 (Homo sapiens, UniProt Q9UHD2); experiment: TBK Biochemical Assay; conditions: read-out: TBK1 IC50
# T1 sequence (Q9UHD2 1-729): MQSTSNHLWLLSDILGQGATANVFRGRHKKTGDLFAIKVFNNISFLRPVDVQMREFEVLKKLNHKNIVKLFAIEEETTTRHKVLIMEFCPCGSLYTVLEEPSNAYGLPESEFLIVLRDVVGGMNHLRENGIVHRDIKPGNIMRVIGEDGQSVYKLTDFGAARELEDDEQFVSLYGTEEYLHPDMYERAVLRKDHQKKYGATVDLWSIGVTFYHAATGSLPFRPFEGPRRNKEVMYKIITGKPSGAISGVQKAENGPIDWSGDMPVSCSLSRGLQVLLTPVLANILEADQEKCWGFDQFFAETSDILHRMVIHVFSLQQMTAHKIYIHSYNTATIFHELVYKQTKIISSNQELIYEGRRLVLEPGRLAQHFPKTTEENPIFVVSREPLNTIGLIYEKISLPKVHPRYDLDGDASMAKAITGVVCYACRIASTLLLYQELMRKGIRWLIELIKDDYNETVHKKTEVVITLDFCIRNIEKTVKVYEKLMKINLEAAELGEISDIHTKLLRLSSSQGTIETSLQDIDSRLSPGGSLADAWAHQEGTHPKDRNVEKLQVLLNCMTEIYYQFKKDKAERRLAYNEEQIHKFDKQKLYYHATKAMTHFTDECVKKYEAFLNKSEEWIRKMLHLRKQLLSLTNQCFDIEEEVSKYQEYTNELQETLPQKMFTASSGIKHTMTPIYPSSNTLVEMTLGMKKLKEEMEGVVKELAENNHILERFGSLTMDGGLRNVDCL
# In short: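 TBK1 enzyme and substrate incubated with compounds (10-point 1:4 dilution, top 30 uM final, 1% DMSO) for 90 min at 25° C, then stopped. Substrate/product peaks read by microfluidic mobility-shift (Caliper LabChip); 10 uM staurosporine as full-inhibition control.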
# IKKε = molecular target: T2, IKKε (Homo sapiens, UniProt Q14164); experiment: IKKe Biochemical Assay; conditions: read-out: IKKε IC50
# T2 sequence (Q14164 1-716): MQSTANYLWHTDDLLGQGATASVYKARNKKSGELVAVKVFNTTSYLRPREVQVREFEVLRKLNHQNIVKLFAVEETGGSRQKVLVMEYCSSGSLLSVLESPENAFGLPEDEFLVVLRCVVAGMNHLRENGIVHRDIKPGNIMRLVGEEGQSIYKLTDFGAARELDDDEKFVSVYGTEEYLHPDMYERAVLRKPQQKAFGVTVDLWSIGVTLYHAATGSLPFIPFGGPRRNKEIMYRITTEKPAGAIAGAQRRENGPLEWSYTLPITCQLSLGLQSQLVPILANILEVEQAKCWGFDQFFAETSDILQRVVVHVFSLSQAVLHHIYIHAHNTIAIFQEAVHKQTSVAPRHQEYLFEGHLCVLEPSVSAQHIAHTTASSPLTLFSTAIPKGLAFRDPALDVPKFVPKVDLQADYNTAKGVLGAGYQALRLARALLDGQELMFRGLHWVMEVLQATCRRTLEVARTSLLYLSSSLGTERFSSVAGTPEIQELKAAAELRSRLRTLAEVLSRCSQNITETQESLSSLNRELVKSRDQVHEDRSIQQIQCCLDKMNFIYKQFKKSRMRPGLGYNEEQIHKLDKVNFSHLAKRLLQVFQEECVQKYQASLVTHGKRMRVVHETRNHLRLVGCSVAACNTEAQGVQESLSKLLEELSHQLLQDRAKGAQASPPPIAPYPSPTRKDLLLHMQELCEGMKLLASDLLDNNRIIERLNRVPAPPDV
# In short: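 Recombinant IKKε and substrate were incubated with compound (10-point 1:4 series, top 30 uM final, 1% DMSO) for 90 min at 25° C, then stopped. Substrate-to-product conversion was read by LabChip microfluidic mobility shift; 10 uM staurosporine served as full-inhibition wells.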
Compound,IC50 [1],IC50 (TBK1),IC50 (IKKε)
"COc1cc(C(=O)N2CC[C@@H](O)C2)ccc1-c1cc2nccc(-c3ccc(OC4CCOCC4)c(C#N)c3)c2o1 [Compound 43, 5-{2-[4-((R)-3-Hydroxy-pyrrolidine-1-carbonyl)-2-methoxy-phenyl]-furo[3,2-b]pyridin-7-yl}-2-(tetrahydro-pyran-4-yloxy)-benzonitrile]",100 to 1000 nM,< 100 nM,< 100 nM
"COc1cc(C(=O)N2CCC(F)(F)C2)ccc1-c1cc2nccc(-c3ccc(OC4CCOCC4)c(C#N)c3)c2o1 [Compound 45, 5-{2-[4-(3,3-Difluoro-pyrrolidine-1-carbonyl)-2-methoxy-phenyl]-furo[3,2-b]pyridin-7-yl}-2-(tetrahydro-pyran-4-yloxy)-benzonitrile]",100 to 1000 nM,< 100 nM,< 100 nM
"COc1cc(C(=O)N2CC3CCC(C2)O3)ccc1-c1cc2nccc(-c3ccc(NC4CCOCC4)c(C#N)c3)c2o1 [Compound 46, 5-{2-[2-Methoxy-4-(8-oxa-3-aza-bicyclo[3.2.1]octane-3-carbonyl)-phenyl]-furo[3,2-b]pyridin-7-yl}-2-(tetrahydro-pyran-4-ylamino)-benzonitrile]",100 to 1000 nM,< 100 nM,< 100 nM
"COc1cc(C(=O)N2CC[C@H](N(C)C)C2)ccc1-c1cc2nccc(-c3ccc(N4CC[C@H](F)C4)c(C#N)c3)c2o1 [Compound 47, 5-{2-[4-((S)-3-Dimethylamino-pyrrolidine-1-carbonyl)-2-methoxy-phenyl]-furo[3,2-b]pyridin-7-yl}-2-((S)-3-fluoro-pyrrolidin-1-yl)-benzonitrile]",100 to 1000 nM,< 100 nM,< 100 nM
"COc1cc(C(=O)NC[C@@H](O)CO)ccc1-c1cc2nccc(-c3ccc(OC4CCOCC4)c(C#N)c3)c2o1 [Compound 49, 4-{7-[3-Cyano-4-(tetrahydro-pyran-4-yloxy)-phenyl]-furo[3,2-b]pyridin-2-yl}-N—((R)-2,3-dihydroxy-propyl)-3-methoxy-benzamide]",100 to 1000 nM,< 100 nM,< 100 nM
"COc1cc(-c2n[nH]c(=O)o2)ccc1-c1cc2nccc(-c3ccc(OC4CCOCC4)c(C#N)c3)c2o1 [Compound 50, 5-{2-[2-Methoxy-4-(5-oxo-4,5-dihydro-[1,3,4]oxadiazol-2-yl)-phenyl]-furo[3,2-b]pyridin-7-yl}-2-(tetrahydro-pyran-4-yloxy)-benzonitrile]",100 to 1000 nM,< 100 nM,< 100 nM
"COc1cc(C(=O)NC2(CO)COC2)ccc1-c1cc2nccc(-c3ccc(OC4CCOCC4)c(C#N)c3)c2o1 [Compound 51, 4-{7-[3-Cyano-4-(tetrahydro-pyran-4-yloxy)-phenyl]-furo[3,2-b]pyridin-2-yl}-N-(3-hydroxymethyl-oxetan-3-yl)-3-methoxy-benzamide]",100 to 1000 nM,< 100 nM,< 100 nM
"COc1cc(C(=O)N2CCC3(CCNC3=O)CC2)ccc1-c1cc2nccc(-c3ccc(NC4CCOCC4)c(C#N)c3)c2o1 [Compound 52, 5-{2-[2-Methoxy-4-(1-oxo-2,8-diaza-spiro[4.5]decane-8-carbonyl)-phenyl]-furo[3,2-b]pyridin-7-yl}-2-(tetrahydro-pyran-4-ylamino)-benzonitrile]",100 to 1000 nM,< 100 nM,< 100 nM
"COc1cc(C(=O)N(C)OC)ccc1-c1cc2nccc(-c3ccc(OC4CCOCC4)c(C#N)c3)c2o1 [Compound 53, 4-{7-[3-Cyano-4-(tetrahydro-pyran-4-yloxy)-phenyl]-furo[3,2-b]pyridin-2-yl}-3,N-dimethoxy-N-methyl-benzamide]",100 to 1000 nM,< 100 nM,< 100 nM
"COc1cc(C(=O)N[C@@H]2CCC[C@@H](O)[C@H]2O)ccc1-c1cc2nccc(-c3ccc(OC4CCOCC4)c(C#N)c3)c2o1 [Compound 54, 4-{7-[3-Cyano-4-(tetrahydro-pyran-4-yloxy)-phenyl]-furo[3,2-b]pyridin-2-yl}-N-((1R,2S,3R)-2,3-dihydroxy-cyclohexyl)-3-methoxy-benzamide]",100 to 1000 nM,< 100 nM,< 100 nM
"COc1cc(C(=O)N2CC3NCCC32)ccc1-c1cc2nccc(-c3ccc(OC4CCOCC4)c(C#N)c3)c2o1 (stereo not drawn) [Compound 55, 5-{2-[4-(2,6-Diaza-bicyclo[3.2.0]heptane-6-carbonyl)-2-methoxy-phenyl]-furo[3,2-b]pyridin-7-yl}-2-(tetrahydro-pyran-4-yloxy)-benzonitrile hydrochloride]",< 100 nM,< 100 nM,< 100 nM
"COc1cc(C(=O)N(C)C)ccc1-c1cc2nccc(-c3ccc(N4CC[C@@H](F)C4)c(C#N)c3)c2o1 [Compound 57, 4-{7-[3-Cyano-4-((R)-3-fluoro-pyrrolidin-1-yl)-phenyl]-furo[3,2-b]pyridin-2-yl}-3-methoxy-N,N-dimethyl-benzamide]",100 to 1000 nM,< 100 nM,< 100 nM
"COc1cc(C(=O)N2CC3CCC(C2)O3)ccc1-c1cc2nccc(-c3ccc(OC4CCOCC4)c(C#N)c3)c2o1 [Compound 58, 5-{2-[2-Methoxy-4-(8-oxa-3-aza-bicyclo[3.2.1]octane-3-carbonyl)-phenyl]-furo[3,2-b]pyridin-7-yl}-2-(tetrahydro-pyran-4-yloxy)-benzonitrile]",< 100 nM,< 100 nM,< 100 nM
"COc1cc(C(=O)NCC2(C)COC2)ccc1-c1cc2nccc(-c3ccc(OC4CCOCC4)c(C#N)c3)c2o1 [Compound 59, 4-{7-[3-Cyano-4-(tetrahydro-pyran-4-yloxy)-phenyl]-furo[3,2-b]pyridin-2-yl}-3-methoxy-N-(3-methyl-oxetan-3-ylmethyl)-benzamide]",100 to 1000 nM,< 100 nM,< 100 nM
"COc1cc(C(=O)NC2CCNCC2)ccc1-c1cc2nccc(-c3ccc(OC4CCOCC4)c(C#N)c3)c2o1 [Compound 62, 4-{7-[3-Cyano-4-(tetrahydro-pyran-4-yloxy)-phenyl]-furo[3,2-b]pyridin-2-yl}-3-methoxy-N-piperidin-4-yl-benzamide hydrochloride]",100 to 1000 nM,< 100 nM,< 100 nM
"COc1cc(C(=O)NC(C)(C)CN(C)C)ccc1-c1cc2nccc(-c3ccc(OC4CCOCC4)c(C#N)c3)c2o1 [Compound 63, 4-{7-[3-Cyano-4-(tetrahydro-pyran-4-yloxy)-phenyl]-furo[3,2-b]pyridin-2-yl}-N-(2-dimethylamino-1,1-dimethyl-ethyl)-3-methoxy-benzamide]",< 100 nM,< 100 nM,< 100 nM
"COc1cc(C(=O)NC2CCN(C)C2)ccc1-c1cc2nccc(-c3ccc(OC4CCOCC4)c(C#N)c3)c2o1 (stereo not drawn) [Compound 64, 4-{7-[3-Cyano-4-(tetrahydro-pyran-4-yloxy)-phenyl]-furo[3,2-b]pyridin-2-yl}-3-methoxy-N-(1-methyl-pyrrolidin-3-yl)-benzamide]",100 to 1000 nM,< 100 nM,< 100 nM
"COc1cc(C(=O)NC2C3COCC32)ccc1-c1cc2nccc(-c3ccc(OC4CCOCC4)c(C#N)c3)c2o1 (stereo not drawn) [Compound 65, 4-{7-[3-Cyano-4-(tetrahydro-pyran-4-yloxy)-phenyl]-furo[3,2-b]pyridin-2-yl}-3-methoxy-N-(3-oxa-bicyclo[3.1.0]hex-6-yl)-benzamide]",100 to 1000 nM,< 100 nM,< 100 nM
